Several values for one entry are separate records, joined by “and”; a condition that tells them apart may be missing. Identical values can stand only once. Toxic doses and inconclusive results are not listed.
System: BDF1 mice, intracerebral L1210 leukemia, survival T/C
Assay: NCI In Vivo Anticancer Drug Screen. Data for tumor model L1210 Leukemia (intracerebral) in B6D2F1 (BDF1) mice
Details: higher = longer survival
In short: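 Antitumour effect is judged in mice with transplanted tumour by comparing survival of treated (T) against vehicle-dosed (C) groups as T/C.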

O=C1C(Cl)=C(N2CC2)C(=O)C(Cl)=C1N1CC1
T/C (endpoint: mean survival time, dose: 0.62 mg/kg/injection, schedule: Q01DX009 (ip), vehicle: Klucel (hydroxypropylcellulose) (HPC)): 98 % of control
T/C (endpoint: mean survival time, dose: 0.62 mg/kg/injection, schedule: Q01DX009 (ip), vehicle: saline): 96 % of control
T/C (endpoint: mean survival time, dose: 1.25 mg/kg/injection, schedule: Q01DX009 (ip), vehicle: Klucel (hydroxypropylcellulose) (HPC)): 98 % of control
T/C (endpoint: mean survival time, dose: 1.25 mg/kg/injection, schedule: Q01DX009 (ip), vehicle: saline): 120 % of control and 96 % of control
T/C (endpoint: mean survival time, dose: 2.5 mg/kg/injection, schedule: Q01DX009 (ip), vehicle: Klucel (hydroxypropylcellulose) (HPC)): 98 % of control
T/C (endpoint: mean survival time, dose: 5.0 mg/kg/injection, schedule: Q01DX009 (ip), vehicle: Klucel (hydroxypropylcellulose) (HPC)): 96 % of control
T/C (endpoint: mean survival time, dose: 10.0 mg/kg/injection, schedule: Q01DX009 (ip), vehicle: Klucel (hydroxypropylcellulose) (HPC)): 96 % of control
T/C (endpoint: mean survival time, dose: 20.0 mg/kg/injection, schedule: Q01DX009 (ip), vehicle: Klucel (hydroxypropylcellulose) (HPC)): 90 % of control
T/C (endpoint: mean survival time, dose: 20.0 mg/kg/injection, schedule: Q01DX009 (ip), vehicle: saline): 87 % of control

CC(=O)NC1=C(N2CC2)C(=O)C(NC(C)=O)=C(N2CC2)C1=O
T/C (endpoint: mean survival time, dose: 0.12 mg/kg/injection, schedule: Q01DX009 (ip), vehicle: saline with Tween-80): 105 % of control
T/C (endpoint: mean survival time, dose: 0.25 mg/kg/injection, schedule: Q01DX005 (ip), vehicle: saline with Tween-80): 97 % of control
T/C (endpoint: mean survival time, dose: 0.25 mg/kg/injection, schedule: Q01DX009 (ip), vehicle: saline with Tween-80): 105 % of control
T/C (endpoint: mean survival time, dose: 0.25 mg/kg/injection, schedule: Q01DX009 (ip), vehicle: saline): 110 % of control and 117 % of control
T/C (endpoint: mean survival time, dose: 0.5 mg/kg/injection, schedule: Q01DX005 (ip), vehicle: saline with Tween-80): 105 % of control
T/C (endpoint: mean survival time, dose: 0.5 mg/kg/injection, schedule: Q01DX009 (ip), vehicle: saline with Tween-80): 108 % of control
T/C (endpoint: mean survival time, dose: 0.5 mg/kg/injection, schedule: Q01DX Z (ip), vehicle: carboxymethylcellulose (CMC)): 113 % of control
T/C (endpoint: mean survival time, dose: 1.0 mg/kg/injection, schedule: Q01DX005 (ip), vehicle: saline with Tween-80): 111 % of control
T/C (endpoint: mean survival time, dose: 2.0 mg/kg/injection, schedule: Q01DX005 (ip), vehicle: saline with Tween-80): 115 % of control
T/C (endpoint: mean survival time, dose: 2.0 mg/kg/injection, schedule: Q01DX009 (ip), vehicle: saline): 96 % of control and 98 % of control
T/C (endpoint: mean survival time, dose: 2.0 mg/kg/injection, schedule: Q01DX Z (ip), vehicle: carboxymethylcellulose (CMC)): 119 % of control

Nc1nncs1
T/C (endpoint: mean survival time, dose: 135.0 mg/kg/injection, schedule: Q01DX009 (ip), vehicle: saline): 101 % of control
T/C (endpoint: median survival time, dose: 64.0 mg/kg/injection, schedule: Q01DX005 (ip), vehicle: saline with Tween-80): 120 % of control
T/C (endpoint: median survival time, dose: 512.0 mg/kg/injection, schedule: Q01DX005 (ip), vehicle: saline with Tween-80): 100 % of control

[N-]=[N+]=CC(=O)NCC(=O)NN
T/C (endpoint: mean survival time, dose: 300.0 mg/kg/injection, schedule: Q01DX Z (ip), vehicle: water): 101 % of control
T/C (endpoint: mean survival time, dose: 400.0 mg/kg/injection, schedule: Q01DX Z (ip), vehicle: water): 87 % of control
T/C (endpoint: mean survival time, dose: 500.0 mg/kg/injection, schedule: Q01DX Z (ip), vehicle: water): 87 % of control

CSc1ncnc2c1ncn2C1OC(CO)C(O)C1O (stereo not drawn)
T/C (endpoint: mean survival time, dose: 25.0 mg/kg/injection, schedule: Q01DX Z (ip), vehicle: saline): 113 % of control
T/C (endpoint: mean survival time, dose: 50.0 mg/kg/injection, schedule: Q01DX Z (ip), vehicle: saline): 92 % of control

CC(=O)OC1CCC(NC(=O)N(CCF)N=O)CC1 (stereo not drawn)
T/C (endpoint: mean survival time, dose: 24.0 mg/kg/injection, schedule: Q01DX001 (ip), vehicle: other): 276 % of control
T/C (endpoint: mean survival time, dose: 32.0 mg/kg/injection, schedule: Q01DX001 (oral), vehicle: other): 516 % of control
T/C (endpoint: mean survival time, dose: 36.0 mg/kg/injection, schedule: Q01DX001 (ip), vehicle: other): 509 % of control

NCCCCS(=O)(=O)Nc1ccc(Nc2c3ccccc3nc3cc([N+](=O)[O-])ccc23)cc1
T/C (endpoint: mean survival time, dose: 25.0 mg/kg/injection, schedule: Q01DX009 (ip), vehicle: saline): 97 % of control
T/C (endpoint: mean survival time, dose: 50.0 mg/kg/injection, schedule: Q01DX009 (ip), vehicle: saline): 99 % of control

COc1cc(NS(C)(=O)=O)ccc1Nc1c2ccc([N+](=O)[O-])cc2nc2c(C)cccc12
T/C (endpoint: mean survival time, dose: 2.5 mg/kg/injection, schedule: Q01DX009 (ip), vehicle: saline): 93 % of control
T/C (endpoint: mean survival time, dose: 2.5 mg/kg/injection, schedule: Q01DX009 (sc), vehicle: saline): 93 % of control
T/C (endpoint: mean survival time, dose: 5.0 mg/kg/injection, schedule: Q01DX009 (ip), vehicle: saline): 103 % of control
T/C (endpoint: mean survival time, dose: 5.0 mg/kg/injection, schedule: Q01DX009 (sc), vehicle: saline): 96 % of control
T/C (endpoint: mean survival time, dose: 10.0 mg/kg/injection, schedule: Q01DX009 (sc), vehicle: saline): 93 % of control
